Measured values published in patent US11857565B2, “Hydrophobic Auristatin F compounds and conjugates thereof” (priority 2018, dated 2024).
Like-named read-outs stand apart in the source and are kept apart here. Starred links: 1 amine or outer side, 2 acyl side, 3 side chain; linkers in the order of their positions; H or OH if unused. Non-standard residues stand in square brackets, D forms with d. Residues, ends and D or L forms follow the SMILES beside them. *: point of attachment. X4 = CC(C)[C@@H](C(=O)[*:2])N(CCCCN(C)C(=O)OC(C)(C)C)[*:1]; Dolaproine = CO[C@@H]([C@@H]1CCCN1)[C@@H](C)C(=O)O; X3 = CC(C)[C@@H](C(=O)[*:2])N(C)CCCCN(C)[*:1]; X16 = CC(CCN(C)[C@H](C(=O)*)C(C)C)CC(C)(C)C; X18 = CCCCCCCCCCCCCCCN(C)[C@H](C(=O)*)C(C)C; Dil = CC[C@H](C)[C@H](NC)[C@@H](CC(=O)O)OC; X21 = CCCCCCCCCCCN(C)[C@H](C(=O)*)C(C)C; X8 = CCCCCCCCCCCCN(C)[C@H](C(=O)*)C(C)C; X12 = CCCCCCCCCCN(C)[C@H](C(=O)*)C(C)C; X11 = CCCCCCCCCN(C)[C@H](C(=O)*)C(C)C; X14 = CCCCCCCCN(C)[C@H](C(=O)*)C(C)C; X24 = CC(C)CCCN(C)[C@H](C(=O)*)C(C)C; X20 = CCCCCCCN(C)[C@H](C(=O)*)C(C)C; X22 = CC(C)CCN(C)[C@H](C(=O)*)C(C)C; NMe2Val = CC(C)[C@@H](C(=O)*)N(C)C; X13 = CCCCCN(C)[C@H](C(=O)*)C(C)C; X23 = CCCN(CCC)[C@H](C(=O)*)C(C)C; X9 = CCCCCCN(C)[C@H](C(=O)*)C(C)C; X10 = CCCCN(C)[C@H](C(=O)*)C(C)C; X15 = CCCN(C)[C@H](C(=O)*)C(C)C; X17 = CCN(CC)[C@H](C(=O)*)C(C)C; X19 = CCN(C)[C@H](C(=O)*)C(C)C; NMeV = CN[C@H](C(=O)O)C(C)C; Boc = CC(C)(C)OC(=O)*

Key:
Assay type in all cases: cell-based
SK-MEL-28 Melanoma = experiment: In vitro cytotoxicity, free drugs on SK-MEL-28; conditions: free drug
Method: (§1) The cytotoxicity of an auristatin Ligand Drug Conjugate or free auristatin drug was measured by a cell proliferation assay employing the protocol described in Promega Corp. Technical Bulletin TB288; Mendoza et al., 2002, Cancer Res. 62:5485-5488), the methods of which is specifically incorporated by reference herein. Briefly, an aliquot of 100 μl of cell culture containing about […] (e.g., HL-60, SK-MEL-5, etc.) in medium is deposited in each well of a 96-well, opaque-walled plate. Control wells were prepared containing medium and without cells. Free Drug or conjugate is added to the experimental wells and incubated for 96 h and are then equilibrated to room temperature for approximately 30 minutes whereupon a volume of CellTiter-Glo™ reagent equal to the volume of cell culture medium present in each well is added. The contents are mixed for 2 minutes on an orbital shaker to induce cell lysis and the plate is incubated at room temperature for 10 minutes to stabilize the luminescence signal for recordation.

SK-MEL-5 Melanoma = experiment: In vitro cytotoxicity, free drugs on SK-MEL-5; conditions: free drug
Method: as §1

A2058 Melanoma = experiment: In vitro cytotoxicity, free drugs on A2058; conditions: free drug
Method: as §1

A375 Melanoma = experiment: In vitro cytotoxicity, free drugs on A375; conditions: free drug
Method: as §1

IGR-37 Melanoma = experiment: In vitro cytotoxicity, free drugs on IGR-37; conditions: free drug
Method: as §1

[1] = In vitro cytotoxicity, free drugs on Colo-853; conditions: free drug; read-out: In vitro IC50 Colo-853 Colon Cancer
Method: as §1

[2] = test system: MDR− HL60 acute myeloid leukemia cell line; experiment: In vitro cytotoxicity (CellTiter-Glo cell proliferation assay), free drugs on HL60; conditions: read-out: In vitro IC50 HL60 (MDR−)
Method: as §1

[3] = test system: MDR+ HL60/RV acute myeloid leukemia cell line; experiment: In vitro cytotoxicity (CellTiter-Glo cell proliferation assay), free drugs on HL60/RV; conditions: read-out: In vitro IC50 HL60/RV (MDR+)
Method: as §1

Row | SMILES | IC50 ([2]; Homo sapiens, HL-60, 96 h) [µM] | IC50 ([3]; Homo sapiens, HL-60, 96 h) [µM] | also measured
1 | CC[C@H](C)[C@@H]([C@@H](CC(=O)N1CCC[C@H]1[C@H](OC)[C@@H](C)C(=O)N[C@@H](Cc1ccccc1)C(=O)O)OC)N(C)C(=O)[C@@H](NC(=O)[C@@H](NCCCCN(C)C(=O)OC(C)(C)C)C(C)C)C(C)C [Compound 17, (Boc-N-methyl)-butyl-AF] (H-[X4]V[Dil][Dolaproine]F-OH) |  |  | IC50 (SK-MEL-28 Melanoma; Homo sapiens, SK-MEL-28): 0.0773 µM; IC50 (SK-MEL-5 Melanoma; Homo sapiens, SK-MEL-5): 0.0262 µM; IC50 (A2058 Melanoma; Homo sapiens, A2058): 0.0203 µM; IC50 (A375 Melanoma; Homo sapiens, A-375): 0.0148 µM; IC50 (IGR-37 Melanoma; Homo sapiens, IGR-37): 0.0627 µM; IC50 [1]: 0.0662 µM
2 | CC[C@H](C)[C@@H]([C@@H](CC(=O)N1CCC[C@H]1[C@H](OC)[C@@H](C)C(=O)N[C@@H](Cc1ccccc1)C(=O)O)OC)N(C)C(=O)[C@@H](NC(=O)[C@H](C(C)C)N(C)CCCCN(C)C(=O)OC(C)(C)C)C(C)C [Compound 16, (Boc-N-methyl)-butyl-AF] (Boc-[X3]V[Dil][Dolaproine]F-OH) |  |  | IC50 (SK-MEL-28 Melanoma; Homo sapiens, SK-MEL-28): 0.0044 µM; IC50 (SK-MEL-5 Melanoma; Homo sapiens, SK-MEL-5): 0.0004 µM; IC50 (A2058 Melanoma; Homo sapiens, A2058): 0.0009 µM; IC50 (A375 Melanoma; Homo sapiens, A-375): 0.0007 µM; IC50 (IGR-37 Melanoma; Homo sapiens, IGR-37): 0.0025 µM; IC50 [1]: 0.0062 µM
3 | CCCCCCCCCCCCCCCN(C)[C@H](C(=O)N[C@H](C(=O)N(C)[C@@H]([C@@H](C)CC)[C@@H](CC(=O)N1CCC[C@H]1[C@H](OC)[C@@H](C)C(=O)N[C@@H](Cc1ccccc1)C(=O)O)OC)C(C)C)C(C)C [Compound 15, Pentadecyl-AF] (X18-V[Dil][Dolaproine]F-OH) | 0.0047 | 0.294 | 
4 | CC[C@H](C)[C@@H]([C@@H](CC(=O)N1CCC[C@H]1[C@H](OC)[C@@H](C)C(=O)N[C@@H](Cc1ccccc1)C(=O)O)OC)N(C)C(=O)[C@@H](NC(=O)[C@H](C(C)C)N(C)CC)C(C)C [Compound 4, Ethyl-AF] (X19-V[Dil][Dolaproine]F-OH) | 0.0232 | 0.145 | 
5 | CCCCN(C)[C@H](C(=O)N[C@H](C(=O)N(C)[C@@H]([C@@H](C)CC)[C@@H](CC(=O)N1CCC[C@H]1[C@H](OC)[C@@H](C)C(=O)N[C@@H](Cc1ccccc1)C(=O)O)OC)C(C)C)C(C)C [Compound 6, Butyl-AF] (X10-V[Dil][Dolaproine]F-OH) | 0.0143 | 0.0479 | 
6 | CCCCCCCCCCCN(C)[C@H](C(=O)N[C@H](C(=O)N(C)[C@@H]([C@@H](C)CC)[C@@H](CC(=O)N1CCC[C@H]1[C@H](OC)[C@@H](C)C(=O)N[C@@H](Cc1ccccc1)C(=O)O)OC)C(C)C)C(C)C [Compound 13, Undecyl-AF] (X21-V[Dil][Dolaproine]F-OH) | 0.001 | 0.0602 | 
7 | CCCCCCCCCCCCN(C)[C@H](C(=O)N[C@H](C(=O)N(C)[C@@H]([C@@H](C)CC)[C@@H](CC(=O)N1CCC[C@H]1[C@H](OC)[C@@H](C)C(=O)N[C@@H](Cc1ccccc1)C(=O)O)OC)C(C)C)C(C)C [Compound 14, Dodecyl-AF] (X8-V[Dil][Dolaproine]F-OH) | 0.0014 | 0.138 | 
8 | CC[C@H](C)[C@@H]([C@@H](CC(=O)N1CCC[C@H]1[C@H](OC)[C@@H](C)C(=O)N[C@@H](Cc1ccccc1)C(=O)O)OC)N(C)C(=O)[C@@H](NC(=O)[C@H](C(C)C)N(C)CCC(C)C)C(C)C [Compound 21, 3-Methylbutyl-AF] (X22-V[Dil][Dolaproine]F-OH) | 0.009 | 0.0463 | 
9 | CC[C@H](C)[C@@H]([C@@H](CC(=O)N1CCC[C@H]1[C@H](OC)[C@@H](C)C(=O)N[C@@H](Cc1ccccc1)C(=O)O)OC)N(C)C(=O)[C@@H](NC(=O)[C@@H](NC)C(C)C)C(C)C [Compound 2, Monomethyl auristatin F, reference compound] (H-[NMeV]V[Dil][Dolaproine]F-OH) |  |  | IC50 (SK-MEL-28 Melanoma): 0.138 µM; IC50 (SK-MEL-5 Melanoma): 0.0356 µM; IC50 (A2058 Melanoma): 0.0842 µM; IC50 (A375 Melanoma): 0.0489 µM; IC50 (IGR-37 Melanoma): 0.0725 µM; IC50 [1]: 0.0902 µM
10 | CCCCCN(C)[C@H](C(=O)N[C@H](C(=O)N(C)[C@@H]([C@@H](C)CC)[C@@H](CC(=O)N1CCC[C@H]1[C@H](OC)[C@@H](C)C(=O)N[C@@H](Cc1ccccc1)C(=O)O)OC)C(C)C)C(C)C [Compound 7, Pentyl-AF] (X13-V[Dil][Dolaproine]F-OH) | 0.0066 | 0.0357 | 
11 | CCCCCCCCCN(C)[C@H](C(=O)N[C@H](C(=O)N(C)[C@@H]([C@@H](C)CC)[C@@H](CC(=O)N1CCC[C@H]1[C@H](OC)[C@@H](C)C(=O)N[C@@H](Cc1ccccc1)C(=O)O)OC)C(C)C)C(C)C [Compound 11, Nonyl-AF] (X11-V[Dil][Dolaproine]F-OH) | 0.0018 | 0.0354 | 
12 | CCCCCCCCCCN(C)[C@H](C(=O)N[C@H](C(=O)N(C)[C@@H]([C@@H](C)CC)[C@@H](CC(=O)N1CCC[C@H]1[C@H](OC)[C@@H](C)C(=O)N[C@@H](Cc1ccccc1)C(=O)O)OC)C(C)C)C(C)C [Compound 12, Decyl-AF] (X12-V[Dil][Dolaproine]F-OH) | 0.001 | 0.0592 | 
13 | CC[C@H](C)[C@@H]([C@@H](CC(=O)N1CCC[C@H]1[C@H](OC)[C@@H](C)C(=O)N[C@@H](Cc1ccccc1)C(=O)O)OC)N(C)C(=O)[C@@H](NC(=O)[C@H](C(C)C)N(C)CCCC(C)C)C(C)C [Compound 19, 4-Methylpentyl-AF] (X24-V[Dil][Dolaproine]F-OH) | 0.0049 | 0.0205 | 
14 | CCCN(CCC)[C@H](C(=O)N[C@H](C(=O)N(C)[C@@H]([C@@H](C)CC)[C@@H](CC(=O)N1CCC[C@H]1[C@H](OC)[C@@H](C)C(=O)N[C@@H](Cc1ccccc1)C(=O)O)OC)C(C)C)C(C)C [Compound 23, Bis(propyl)-AF] (X23-V[Dil][Dolaproine]F-OH) | 0.0062 | 0.437 | 
15 | CC[C@H](C)[C@@H]([C@@H](CC(=O)N1CCC[C@H]1[C@H](OC)[C@@H](C)C(=O)N[C@@H](Cc1ccccc1)C(=O)O)OC)N(C)C(=O)[C@@H](NC(=O)[C@H](C(C)C)N(C)CCC(C)CC(C)(C)C)C(C)C (stereo partly drawn) [Compound 20, 3,5,5-Trimethylhexyl-AF] (X16-V[Dil][Dolaproine]F-OH) | 0.001 | 0.017 | 
16 | CCCCCCCN(C)[C@H](C(=O)N[C@H](C(=O)N(C)[C@@H]([C@@H](C)CC)[C@@H](CC(=O)N1CCC[C@H]1[C@H](OC)[C@@H](C)C(=O)N[C@@H](Cc1ccccc1)C(=O)O)OC)C(C)C)C(C)C [Compound 9, Heptyl-AF] (X20-V[Dil][Dolaproine]F-OH) | 0.0077 | 0.0885 | 
17 | CC[C@H](C)[C@@H]([C@@H](CC(=O)N1CCC[C@H]1[C@H](OC)[C@@H](C)C(=O)N[C@@H](Cc1ccccc1)C(=O)O)OC)N(C)C(=O)[C@@H](NC(=O)[C@H](C(C)C)N(C)C)C(C)C [Compound 1, Auristatin F] (NMe2Val-V[Dil][Dolaproine]F-OH) |  |  | IC50 ([2]; free drug, 96 h incubation): 0.137 µM; IC50 ([3]; free drug, 96 h incubation): 0.388 µM
18 | CC[C@H](C)[C@@H]([C@@H](CC(=O)N1CCC[C@H]1[C@H](OC)[C@@H](C)C(=O)N[C@@H](Cc1ccccc1)C(=O)O)OC)N(C)C(=O)[C@@H](NC(=O)[C@H](C(C)C)N(CC)CC)C(C)C [Compound 22, Bis(ethyl)-AF] (X17-V[Dil][Dolaproine]F-OH) | 0.0136 | 0.202 | 
19 | CCCCCCN(C)[C@H](C(=O)N[C@H](C(=O)N(C)[C@@H]([C@@H](C)CC)[C@@H](CC(=O)N1CCC[C@H]1[C@H](OC)[C@@H](C)C(=O)N[C@@H](Cc1ccccc1)C(=O)O)OC)C(C)C)C(C)C [Compound 8, Hexyl-AF] (X9-V[Dil][Dolaproine]F-OH) | 0.0069 | 0.0409 | 
20 | CCCCCCCCN(C)[C@H](C(=O)N[C@H](C(=O)N(C)[C@@H]([C@@H](C)CC)[C@@H](CC(=O)N1CCC[C@H]1[C@H](OC)[C@@H](C)C(=O)N[C@@H](Cc1ccccc1)C(=O)O)OC)C(C)C)C(C)C [Compound 10, Octyl-AF] (X14-V[Dil][Dolaproine]F-OH) | 0.0039 | 0.0559 | 
21 | CCCN(C)[C@H](C(=O)N[C@H](C(=O)N(C)[C@@H]([C@@H](C)CC)[C@@H](CC(=O)N1CCC[C@H]1[C@H](OC)[C@@H](C)C(=O)N[C@@H](Cc1ccccc1)C(=O)O)OC)C(C)C)C(C)C [Compound 5, Propyl-AF] (X15-V[Dil][Dolaproine]F-OH) | 0.0245 | 0.0821 | 
